Test system: THP-1 cells
Experiment: Cytotoxicity of TCEP digestion media (LIVE/DEAD stain, flow cytometry)
Format: cell-based
Conditions: TCEP 0.1 mM to 100 mM, 10 minutes
Method: Cell death was analyzed by flow cytometry after staining using the LIVE/DEAD fixable Violet Dead Cell Stain. Multiple comparisons among groups were determined using one-way ANOVA followed by a post-hoc test. P-value: *p<0.05, **p<0.01.
The ability to induce on-demand digestion of the MNs using a reducing agent (Tris (2-carboxyethil) phosphine, TCEP) was also characterized. […] THP-1 cells were incubated with different concentrations of digestion media (TCEP solution in supplemented media), ranging from 0.1 mM to 100 mM, for 10 minutes. Thereafter, digestion media was removed, and cells were stained using the LIVE/DEAD fixable Violet Dead Cell Stain Kit (ThermoFisher Scientific, USA) following the manufacturer's guidelines. Dead cells were analyzed by flow cytometry using a BD LSRFortessa™ flow cytometer.

Compound: O=C(O)CCP(CCC(=O)O)CCC(=O)O [TCEP, tris(2-carboxyethyl)phosphine]
- cell viability: did not affect cell viability

— US20240149033A1, “MICRONEEDLE COMPOSITIONS AND METHODS OF DELIVERY USING THE SAME” (The Brigham and Women`s Hospital, Inc., priority 2021, published 2024)
